Laboratory results from ChEMBL document CHEMBL1201862, “PubChem BioAssay data set” (2004).
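Exposure lasted 48 hours, with cells grown in 96-well plates and compounds tested at five concentrations. GI50 = concentration required for 50% inhibition of growth.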 The source made the active and inactive calls. Rule as the data show it: active = GI50 up to about 1.1 µM and inactive = higher.

Key:
Experiment in all cases: DTP human tumour cell line panel, 48 h
LXFL 529 = system: LXFL 529
Malme-3M = system: Malme-3M
U-251 = system: U-251
A549 = system: A549
OVCAR-8 = system: OVCAR-8
OVCAR-5 = system: OVCAR-5
LOX IMVI = system: LOX IMVI
NCI/ADR-RES = system: NCI/ADR-RES
UO-31 = system: UO-31
ACHN = system: ACHN
SW-620 = system: SW-620
SNB-19 = system: SNB-19
UACC-62 = system: UACC-62
SF-295 = system: SF-295
SNB-75 = system: SNB-75
SR = system: SR
MCF7 = system: MCF7
RPMI-8226 = system: RPMI-8226
HCT-116 = system: HCT-116
BT-549 = system: BT-549

Measured: GI50

CNC(=O)OCc1nc(SC(C)C)n(C)c1COC(=O)NC
inactive: LXFL 529 > 100 µM | Malme-3M > 100 µM | U-251 > 100 µM | A549 > 100 µM | OVCAR-8 > 100 µM | OVCAR-5 > 100 µM | LOX IMVI > 100 µM | NCI/ADR-RES > 100 µM | UO-31 > 100 µM | ACHN > 100 µM | SW-620 > 100 µM | SNB-19 > 100 µM | UACC-62 > 100 µM | SF-295 > 100 µM | SNB-75 > 100 µM | SR > 100 µM | MCF7 > 100 µM | RPMI-8226 > 71.1 µM | HCT-116 > 100 µM

CC1NOC(=O)C1/N=N/c1ccccc1Br (configuration not stated)
inactive: LXFL 529 15.7 µM | Malme-3M 26.2 µM | U-251 22.4 µM | A549 24.2 µM | OVCAR-8 22 µM | OVCAR-5 40.7 µM | LOX IMVI 23.9 µM | UO-31 18.6 µM | ACHN 35.3 µM | SW-620 13.8 µM | SNB-19 37.4 µM | UACC-62 19.9 µM | SF-295 40.7 µM | SNB-75 31.4 µM | SR 25.1 µM | RPMI-8226 28.8 µM | HCT-116 32.5 µM

IC[P+]1(c2ccccc2)CCCC1
inactive: LXFL 529 29.6 µM | Malme-3M 44.5 µM | U-251 12.8 µM | A549 28.7 µM | OVCAR-8 32.4 µM | OVCAR-5 > 100 µM | LOX IMVI 26.7 µM | UO-31 > 100 µM | ACHN 82.4 µM | SW-620 > 100 µM | SNB-19 59.6 µM | UACC-62 > 100 µM | SF-295 40.1 µM | SNB-75 26.2 µM | SR 33.4 µM | RPMI-8226 29.8 µM | HCT-116 49.8 µM

CC(=O)C1(O)Cc2c(O)c3c(c(O)c2C(OC2CC(N)C(O)C(C)O2)C1)C(=O)c1ccccc1C3=O (configuration not stated)
active: LXFL 529 < 0.0219 µM | Malme-3M 0.01 µM | U-251 0.0255 µM | A549 0.0248 µM | OVCAR-8 0.0327 µM | BT-549 0.134 µM | OVCAR-5 0.141 µM | LOX IMVI 0.01 µM | NCI/ADR-RES 0.297 µM | UO-31 0.042 µM | ACHN 0.00438 µM | SW-620 0.0221 µM | SNB-19 0.0373 µM | UACC-62 0.0303 µM | SF-295 0.0141 µM | SNB-75 0.0132 µM | SR 0.0292 µM | MCF7 0.00458 µM | HCT-116 0.0279 µM

COc1ccccc1NC(=O)C1=C(C)NC(C)=C(C(=O)Nc2ccccc2OC)C1c1ccccc1F
inactive: LXFL 529 57.5 µM | Malme-3M 63.1 µM | U-251 90.8 µM | A549 57.4 µM | OVCAR-8 > 100 µM | OVCAR-5 > 100 µM | LOX IMVI > 100 µM | UO-31 62.7 µM | ACHN 51.6 µM | SW-620 > 100 µM | SNB-19 > 100 µM | UACC-62 81.7 µM | SF-295 > 100 µM | SNB-75 18 µM | SR 64.7 µM | RPMI-8226 62.1 µM | HCT-116 59 µM

CC(=O)NNc1nc(C)c(C(=O)NNC(=O)C(=O)Nc2ccc(C)c(C)c2)s1
inactive: LXFL 529 58.2 µM | Malme-3M > 100 µM | U-251 96.4 µM | A549 > 100 µM | OVCAR-8 55.5 µM | OVCAR-5 > 100 µM | LOX IMVI 16.7 µM | UO-31 74 µM | ACHN > 100 µM | SW-620 > 100 µM | SNB-19 > 100 µM | UACC-62 > 100 µM | SF-295 78.5 µM | SNB-75 > 100 µM | SR 54.1 µM | RPMI-8226 50.9 µM | HCT-116 > 100 µM

[N-]=[N+]=NC(CI)c1cn([C@H]2C[C@H](O)[C@@H](CO)O2)c(=O)[nH]c1=O (some centres not stated)
inactive: LXFL 529 > 100 µM | Malme-3M > 100 µM | U-251 > 100 µM | A549 41.5 µM | OVCAR-8 > 100 µM | OVCAR-5 > 100 µM | LOX IMVI > 100 µM | UO-31 > 100 µM | ACHN > 100 µM | SW-620 > 100 µM | SNB-19 > 100 µM | UACC-62 > 100 µM | SF-295 > 100 µM | SNB-75 > 100 µM | SR > 100 µM | RPMI-8226 51.5 µM | HCT-116 > 100 µM

O=C(NP(=O)(N1CC1)N1CC1)c1cc(I)ccc1I [DIIODBENZOTEPH]
inactive: LXFL 529 > 100 µM | Malme-3M 50.4 µM | U-251 24.6 µM | A549 23.6 µM | OVCAR-8 31.2 µM | BT-549 53.7 µM | OVCAR-5 > 84.1 µM | LOX IMVI 12.4 µM | NCI/ADR-RES 23.3 µM | UO-31 28.1 µM | ACHN 6.05 µM | SW-620 67.5 µM | SNB-19 53.7 µM | UACC-62 10.4 µM | SF-295 30 µM | SNB-75 37.9 µM | MCF7 38 µM | RPMI-8226 52.7 µM | HCT-116 40.3 µM
